From ChEMBL document CHEMBL1201862, “PubChem BioAssay data set” (2004)
The source made the active and inactive calls.

Key:
[1] = target: T1, Heat shock factor protein 1 (Mus musculus, UniProt P38532); test: decrease of HSF1-responsive luciferase luminescence – cell-based, NIH3T3, dose retest, confirmation (AID 2382); format: functional;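 also: NIH3T3 fibroblasts with HSF1-driven luciferase reporter stressed by proteasome inhibitor MG132; luminescence from HSF1-driven luciferase expression after 8 hours of MG132 stress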
T1 sequence (P38532 whole entry): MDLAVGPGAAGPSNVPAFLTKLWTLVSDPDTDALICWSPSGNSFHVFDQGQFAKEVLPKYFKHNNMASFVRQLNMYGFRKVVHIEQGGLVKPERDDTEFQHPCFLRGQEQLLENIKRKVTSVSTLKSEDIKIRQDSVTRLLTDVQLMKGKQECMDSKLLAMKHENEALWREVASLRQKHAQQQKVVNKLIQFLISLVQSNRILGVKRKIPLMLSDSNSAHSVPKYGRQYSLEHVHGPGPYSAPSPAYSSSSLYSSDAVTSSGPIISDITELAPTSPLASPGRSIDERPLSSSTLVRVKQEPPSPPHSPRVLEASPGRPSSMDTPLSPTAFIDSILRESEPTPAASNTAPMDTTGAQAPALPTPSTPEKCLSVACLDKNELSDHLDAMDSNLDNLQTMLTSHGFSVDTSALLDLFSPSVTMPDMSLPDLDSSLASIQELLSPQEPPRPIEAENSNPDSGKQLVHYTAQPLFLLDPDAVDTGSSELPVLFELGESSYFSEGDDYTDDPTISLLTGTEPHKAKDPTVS

[2] = HEK-293T cell viability reduction – luminescence, B-cell screen hits, cytotoxicity control for BCR NF-kB inhibitor project, dose response (AID 489021); format: functional, cell-based;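 also: HEK-293T cells carrying an NF-kB luciferase reporter; cells exposed to compound for about 14 hours before viability readout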
Cytochrome P450 3A4 [3] = target: T2, Cytochrome P450 3A4 (Homo sapiens, UniProt P08684);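 also: CYP3A4 tested as one member of a cytochrome P450 panel screen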
Cytochrome P450 2C19 = Cytochrome P450 2C19 (Homo sapiens, UniProt P33261); test: Cytochrome panel assay with activity outcomes. Panel member name: p450-cyp2c19 Compounds with AC50 equal or less than 10 uM are considered active; format: functional; conditions: read-out: AC50
Cytochrome P450 3A4 [4] = target: T2, Cytochrome P450 3A4; remark: listed apart in the source
[5] = target: T1, Heat shock factor protein 1; test: enhancement of HSF1-driven luciferase signal – cell-based, NIH3T3, luminescence, dose retest, confirmation (AID 435004); format: functional;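 also: stress induced by proteasome inhibitor MG132 added 30 min after compound; luciferase reporter driven by HSF1 response element in NIH3T3 cells; actives raise luminescence as potentiators of the MG132 stress response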
[6] = Luminescence Cell-Based Dose Response HTS to Identify Activators of Luciferase Translation or Activity in H4 […] Cells. [Related pubchem assays: 1829 (Project Summary), 1814 (Primary HTS)]; format: functional
[7] = Luminescence Cell-Based Dose Confirmation HTS to Identify Activators of 5'UTR Stem-Loop Driven Alpha-Synuclein mRNA Translation in H4 Neuroglioblastoma Cells. [Related pubchem assays: 1829 (Project Summary), 1814 (Primary HTS)]; format: functional
H4 = test: Luminescence Cell-Based Dose Response HTS to Identify Activators of 5'UTR Stem-Loop Driven Prion Protein mRNA Translation in H4 Neuroglioblastoma Cells. [Related pubchem assays: 1829 (Project Summary), 1814 (Primary HTS)]; format: functional; conditions: Homo sapiens
Streptokinase A = target: T3, Streptokinase A (Streptococcus pyogenes serotype M1, UniProt P10520); test: viability-normalized secreted streptokinase activity reduction – plasminogen activation absorbance, OD405, dose response (AID 1914); format: functional, Streptococcus pyogenes M1 GAS;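 also: secreted streptokinase activity via plasminogen activation per viability signal from cell pellet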
T3 sequence (P10520 whole entry): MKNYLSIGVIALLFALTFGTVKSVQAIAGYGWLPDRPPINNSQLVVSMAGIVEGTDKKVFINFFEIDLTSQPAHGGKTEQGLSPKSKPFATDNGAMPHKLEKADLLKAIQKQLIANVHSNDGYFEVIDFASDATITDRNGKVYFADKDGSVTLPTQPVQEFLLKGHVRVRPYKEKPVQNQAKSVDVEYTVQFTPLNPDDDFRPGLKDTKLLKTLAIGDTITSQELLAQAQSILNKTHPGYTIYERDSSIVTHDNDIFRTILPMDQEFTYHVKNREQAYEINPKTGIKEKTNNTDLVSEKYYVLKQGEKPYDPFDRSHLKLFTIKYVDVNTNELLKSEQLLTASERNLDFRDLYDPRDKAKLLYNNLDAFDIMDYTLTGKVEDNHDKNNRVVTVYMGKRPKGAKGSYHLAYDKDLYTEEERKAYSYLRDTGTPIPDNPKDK

[8] = test system: Streptococcus sp. 'group A'; test: Streptococcus pyogenes SK(-)GAS viability under kanamycin – luminescence, BacTiterGlo, confirmation, counter-screen for streptokinase expression inhibitor project, dose response (AID 1900); format: functional, organism-based
Streptococcus = test: GAS UMAA2166 growth inhibition – luminescence, BacTiterGlo, counter-screen for streptokinase expression inhibitor project, dose response (AID 1915); format: functional, organism-based;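 also: potency for reduction of bacterial viability or growth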
Cytochrome P450 2C9 = Cytochrome P450 2C9 (Homo sapiens, UniProt P11712)
[9] = target: FAD-linked sulfhydryl oxidase ALR (Homo sapiens, UniProt P55789); test: ALR-catalysed DTT oxidation blockers – biochemical, H2O2 detection, luminescence, cherry-pick, dose response (AID 493248)
[10] = target: Induced myeloid leukemia cell differentiation protein Mcl-1 (Homo sapiens, UniProt Q07820); format: functional
[11] = THP-1 cell cytotoxicity, dose response, cytotoxicity control for non-replicating M. tuberculosis project (AID 489025); format: functional
[12] = Vero E6 cell cytotoxicity, dose response, cytotoxicity control for non-replicating M. tuberculosis project, secondary assay (AID 492998); format: functional, VeroE6; conditions: Vero C1008
cells = format: functional
[13] = microbe, parasite or virus in culture; format: functional; conditions: Mycobacterium tuberculosis

T2 sequence (P08684 whole entry): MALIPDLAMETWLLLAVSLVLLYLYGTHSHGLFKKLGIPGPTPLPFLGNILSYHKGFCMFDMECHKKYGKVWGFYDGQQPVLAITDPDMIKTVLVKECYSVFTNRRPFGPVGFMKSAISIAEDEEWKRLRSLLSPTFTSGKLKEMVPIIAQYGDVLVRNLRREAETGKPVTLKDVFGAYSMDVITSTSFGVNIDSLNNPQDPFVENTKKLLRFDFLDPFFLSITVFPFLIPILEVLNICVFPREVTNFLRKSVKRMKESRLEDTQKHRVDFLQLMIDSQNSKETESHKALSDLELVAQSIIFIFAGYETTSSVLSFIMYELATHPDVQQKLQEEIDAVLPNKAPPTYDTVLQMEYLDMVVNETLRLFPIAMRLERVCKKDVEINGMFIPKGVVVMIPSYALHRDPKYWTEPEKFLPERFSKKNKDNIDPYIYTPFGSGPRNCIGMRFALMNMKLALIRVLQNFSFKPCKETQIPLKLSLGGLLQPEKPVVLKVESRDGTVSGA
Cytochrome P450 2C19, sequence (P33261 whole entry): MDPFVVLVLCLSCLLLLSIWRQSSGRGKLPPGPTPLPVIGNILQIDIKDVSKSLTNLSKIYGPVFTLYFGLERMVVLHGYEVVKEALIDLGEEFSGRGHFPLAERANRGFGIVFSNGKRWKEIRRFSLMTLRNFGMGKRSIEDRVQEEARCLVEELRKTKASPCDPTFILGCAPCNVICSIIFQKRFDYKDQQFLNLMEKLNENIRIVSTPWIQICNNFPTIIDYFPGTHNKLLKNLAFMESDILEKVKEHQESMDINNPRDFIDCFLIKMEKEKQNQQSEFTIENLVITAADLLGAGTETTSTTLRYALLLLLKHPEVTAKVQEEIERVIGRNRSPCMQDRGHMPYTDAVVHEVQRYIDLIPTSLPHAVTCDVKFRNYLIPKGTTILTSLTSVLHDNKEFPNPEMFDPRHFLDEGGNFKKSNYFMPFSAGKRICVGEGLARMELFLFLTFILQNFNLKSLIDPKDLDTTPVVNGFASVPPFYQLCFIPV
FAD-linked sulfhydryl oxidase ALR, sequence (P55789 whole entry): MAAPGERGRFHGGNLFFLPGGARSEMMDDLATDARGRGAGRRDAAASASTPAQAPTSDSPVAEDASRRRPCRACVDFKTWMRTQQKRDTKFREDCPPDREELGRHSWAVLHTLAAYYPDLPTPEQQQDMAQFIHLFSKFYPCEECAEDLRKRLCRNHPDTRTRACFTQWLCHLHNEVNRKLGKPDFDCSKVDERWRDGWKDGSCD
Cytochrome P450 2C9, sequence (P11712 whole entry): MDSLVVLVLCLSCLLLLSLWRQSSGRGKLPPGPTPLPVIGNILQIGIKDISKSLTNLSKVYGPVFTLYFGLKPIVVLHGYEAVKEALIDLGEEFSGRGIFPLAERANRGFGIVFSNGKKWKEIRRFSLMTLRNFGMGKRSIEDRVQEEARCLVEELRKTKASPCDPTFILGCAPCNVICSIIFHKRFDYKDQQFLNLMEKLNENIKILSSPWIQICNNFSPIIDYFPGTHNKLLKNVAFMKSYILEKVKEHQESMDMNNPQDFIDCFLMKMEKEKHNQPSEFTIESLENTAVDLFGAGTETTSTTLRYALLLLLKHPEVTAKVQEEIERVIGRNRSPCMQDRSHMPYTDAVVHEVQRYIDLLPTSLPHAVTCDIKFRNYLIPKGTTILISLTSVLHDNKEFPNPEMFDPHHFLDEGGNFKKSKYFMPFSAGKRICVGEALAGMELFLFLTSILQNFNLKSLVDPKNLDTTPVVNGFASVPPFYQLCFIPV
Induced myeloid leukemia cell differentiation protein Mcl-1, sequence (Q07820 whole entry): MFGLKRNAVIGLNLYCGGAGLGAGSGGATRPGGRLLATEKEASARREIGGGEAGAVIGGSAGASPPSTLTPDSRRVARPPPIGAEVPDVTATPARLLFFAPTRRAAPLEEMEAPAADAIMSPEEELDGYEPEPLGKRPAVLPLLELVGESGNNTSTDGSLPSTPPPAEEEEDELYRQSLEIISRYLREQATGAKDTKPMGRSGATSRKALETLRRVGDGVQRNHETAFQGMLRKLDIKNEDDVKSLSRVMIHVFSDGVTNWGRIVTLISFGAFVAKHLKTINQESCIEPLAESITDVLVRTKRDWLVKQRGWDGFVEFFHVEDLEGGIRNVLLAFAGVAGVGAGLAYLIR

**Q.** For `O=C(O)CCN1C(=O)/C(=C/c2nc3ccccc3[nH]2)SC1=S`, which EC50 [1] is on record?
**A.** The EC50 was 7.78 µM (active).

**Q.** What about the IC50 [2] of the same compound?
**A.** The IC50 was > 80 µM (inactive).

**Q.** Which AC50 (Cytochrome P450 3A4 [3]) does the source give for `COc1ccc(NC(=O)N2CCC3(CC2)CCN(C(=O)c2cccc(F)c2)CC3)cc1` here?
**A.** The AC50 was “inconclusive”.

**Q.** With `Cc1cc(N2CCOCC2)nc2ccc(Cc3ccc4nc(N5CCOCC5)cc(C)c4c3)cc12` as the compound, how does the AC50 (Cytochrome P450 3A4 [3]) read?
**A.** The AC50 was “inconclusive”.

**Q.** With `O=C(NCCCN1CCC(Cc2ccccc2)CC1)C1CCN(S(=O)(=O)N2CCOCC2)CC1` as the compound, how does the AC50 (Cytochrome P450 2C19) read?
**A.** The AC50 was 25.1 µM (inconclusive).

**Q.** And the AC50 (Cytochrome P450 3A4 [3])?
**A.** Its AC50 is “inconclusive”.

**Q.** What does the source list for `CCCC(=O)N1CCN(c2ccc(NC(=O)c3ccc(OCC)c([N+](=O)[O-])c3)cc2)CC1`?
**A.** AC50 (Cytochrome P450 2C19): 28.2 µM (inconclusive); AC50 (Cytochrome P450 3A4 [3]): inconclusive

**Q.** Which IC50 [2] does the source give for `CCN(CC(=O)Nc1c(F)cccc1F)C(=O)c1cc(S(=O)(=O)N2CCOCC2)ccc1N1CCCC1` here?
**A.** Its IC50 is > 80 µM (inactive).

**Q.** With `C[C@H](O/N=C1/[C@H]2O[C@@H]2[C@@H](O)[C@H]2[C@H]1CCn1c(=O)n(-c3ccccc3)c(=O)n12)c1cn([C@H](CO)Cc2ccccc2)nn1` as the compound, how does the AC50 (Cytochrome P450 3A4 [3]) read?
**A.** Its AC50 is 3.98 µM (inconclusive).

**Q.** What about the AC50 (Cytochrome P450 3A4 [4]) of the same compound?
**A.** Its AC50 is 3.98 µM (inconclusive).

**Q.** With `CCOc1ccccc1CNCCN1CCOCC1.Cl` as the compound, how does the AC50 (Cytochrome P450 3A4 [3]) read?
**A.** The AC50 was “inconclusive”.

**Q.** What about the EC50 [5] of the same compound?
**A.** The EC50 was > 260 µM (inactive).

**Q.** Which EC50 [6] does the source give for `Nc1nc(CSc2ncccn2)nc(Nc2ccccc2)n1` here?
**A.** Its EC50 is 0.504 µM (active).

**Q.** And the EC50 [7]?
**A.** The EC50 was 3.07 µM (active).

**Q.** With `COc1ccc(/C=C/c2ccccc2)cc1[C@H]1[C@H]2C=CC[C@@H](C)[C@@H]2C(=O)N1Cc1ccccc1` as the compound, how does the IC50 [2] read?
**A.** Its IC50 is > 80 µM (inactive).

**Q.** With `CC(=O)Oc1ccc2occ(-c3ccccc3)c2c1` as the compound, how does the EC50 [6] read?
**A.** The EC50 was 16.7 µM (active).

**Q.** What about the EC50 [7] of the same compound?
**A.** The EC50 was 13.8 µM (active).

**Q.** What about the EC50 (H4) of the same compound?
**A.** Its EC50 is 14 µM (active).

**Q.** With `CCOC(=O)C(=O)N(Nc1ccc(C)cc1)c1ccc(C)cc1` as the compound, how does the EC50 [6] read?
**A.** The EC50 was 82.6 µM (active).

**Q.** And the EC50 [7]?
**A.** The EC50 was 7.04 µM (active).

**Q.** With `CC1CCN(c2ccc(-c3ccc(NC(=O)c4ccco4)cc3)nn2)CC1` as the compound, how does the EC50 [6] read?
**A.** Its EC50 is > 120 µM (not active).

**Q.** What about the EC50 [7] of the same compound?
**A.** Its EC50 is 18.6 µM (active).

**Q.** What about the EC50 (Streptokinase A) of the same compound?
**A.** Its EC50 is > 150 µM (not active).

**Q.** What about the EC50 [8] of the same compound?
**A.** Its EC50 is > 150 µM (not active).

**Q.** And the EC50 (Streptococcus)?
**A.** Its EC50 is > 150 µM (not active).

**Q.** And the EC50 (H4)?
**A.** Its EC50 is 120 µM (active).

**Q.** For `COc1ccc(C2=NCc3nnc(C)n3-c3ccc(Cl)cc32)cc1Cl`, which IC50 [2] is on record?
**A.** Its IC50 is > 80 µM (inactive).

**Q.** Which AC50 (Cytochrome P450 2C9) does the source give for `Cn1c(=O)c(-c2ccc(Cl)cc2)nc2cnc(N3CCOCC3)nc21` here?
**A.** Its AC50 is “inconclusive”.

**Q.** And the AC50 (Cytochrome P450 3A4 [3])?
**A.** The AC50 was “inconclusive”.

**Q.** For `COc1ccc(C(=O)N/N=C/c2sc(N3CCOCC3)nc2-c2ccccc2)cc1OC`, which IC50 [2] is on record?
**A.** The IC50 was 63.1 µM (inactive).

**Q.** For `COc1cc(/C=N/NC(=O)c2cc(-c3ccco3)nc3ccccc23)cc(OC)c1O`, which AC50 [9] is on record?
**A.** The AC50 was 130 nM (active).

**Q.** And the IC50 [10]?
**A.** The IC50 was 8.35 µM (active).

**Q.** For `Cc1ccc2nc(N/C(N)=N/C(=O)NC3CCCCC3)nc(C)c2c1`, which EC50 [8] is on record?
**A.** The EC50 was 5.35 µM (active).

**Q.** What about the EC50 (Streptococcus) of the same compound?
**A.** The EC50 was > 150 µM (not active).

**Q.** And the CC50 [11]?
**A.** Its CC50 is 23.2 µM (active).

**Q.** And the CC50 [12]?
**A.** Its CC50 is 18.5 µM (active).

**Q.** What about the IC50 (cells) of the same compound?
**A.** The IC50 was 3.74 µM (active).

**Q.** What about the CC50 [13] of the same compound?
**A.** Its CC50 is 21.1 µM (active).
